Data published in BigSolDB 2.1.

Cc1[nH]c(=O)c(C#N)cc1-c1ccncc1
solubility (mole fraction)
Conditions | 278.15 K | 283.15 K | 288.15 K | 293.15 K | 298.15 K | 303.15 K | 308.15 K | 313.15 K | 318.15 K | 323.15 K
in DMF | 7.95e-05 | 9.2e-05 | 0.000109 | 0.000129 | 0.000149 | 0.000173 | 0.000199 | 0.000225 | 0.000251 | 0.000285
in ethanol | 9.24e-06 | 1.13e-05 | 1.35e-05 | 1.58e-05 | 1.84e-05 | 2.13e-05 | 2.43e-05 | 2.74e-05 | 3.1e-05 | 3.5e-05
in ethylene glycol | 1.72e-05 | 2.09e-05 | 2.46e-05 | 2.89e-05 | 3.37e-05 | 3.89e-05 | 4.4e-05 | 5.03e-05 | 5.66e-05 | 6.44e-05
in isopropanol | 2.44e-05 | 2.89e-05 | 3.43e-05 | 4.03e-05 | 4.73e-05 | 5.4e-05 | 6.16e-05 | 7.07e-05 | 7.92e-05 | 9.02e-05
in water | 4.99e-07 | 5.98e-07 | 7.1e-07 | 8.34e-07 | 9.77e-07 | 1.12e-06 | 1.27e-06 | 1.44e-06 | 1.64e-06 | 1.85e-06
